Data: patent US6127349A, “Phospholipid drug derivatives” (Amur Research Corporation, priority 1998, dated 2000)

Key:
[1] = tested on: enzyme on lymphocyte cell membrane that cleaves phosphocholine from other compounds; assay: Stimulation of lymphocyte membrane enzyme that cleaves phosphocholine; assay type: biochemical; conditions: data not shown
[2] = oral; cited from earlier work
[3] = oral administration, cited from earlier work
[4] = tested on: cutaneous hypersensitivity immune response; assay: DNCB-induced cutaneous contact hypersensitivity (ear swelling); assay type: in vivo, mice (Balb/c); conditions: for cutaneous hypersensitivity immune response: 100 μg/day/mouse s.c., twelve days, ears rechallenged with 1% DNCB; for cutaneous hypersensitivity immune response / suppression of the response by dexamethasone: days 7-12; for suppression of the response by dexamethasone: steroid together with dexamethasone
Procedure: The effects of DHEA-PC on cutaneous contact hypersensitivity was studied. In this study, mice (Balb/c) were immunologically challenged with DNCB (2 % in ethanol) applied to a 2 cm area on the back. The steroid was injected subcutaneously (100 μg/day/mouse) throughout the twelve-day study period. Ears were rechallenged with DNCB (1% in ethanol) on days 7-12 and swelling was measured daily in order to evaluate the effect on the immune system.

[5] = literature; cited from earlier work
[6] = cited from earlier work
[7] = Partition of tritiated DHEA-phosphocholine reaction product between aqueous phase and benzene (scintillation counting); assay type: physicochemical
Procedure: A dehydroepiandrosterone(DHEA)-phosphocholine derivative was synthesized as follows: 1 mg of phosphocholine (calcium salt; Sigma Chemical, St. Louis, Mo.) was dissolved in 0.5 ml of formamide (Cat # S-7503; Lot # 55HO257; Sigma Chemical) and 0.5 ml of pyridine (Cat # P-4036; Lot # 55H1489; Sigma Chemical). 0.025 mCi of (1,2,6,7 ^3 H(n)-Dehydroepiandrosterone (Cat # NET814; Lot # 3146097; 89.2 Ci/mmol; Dupont, NEN Products, Boston, Mass.) in 0.025 ml of ethanol was added. The reaction was catalyzed by the addition (as the dry solid) of 5 mg of dicyclohexylcarbodiimide (Cat # D-3129; Lot # 34hO647; Sigma Chemical). The reaction mixture was incubated overnight at room temperature. In the morning, 9 ml of water was added and the mixture extracted 3 times with 10 ml portions of benzene. The benzene extracts were combined and aliquots of both phases were counted in a scintillation counter. The results are set forth below:
The aqueous layer was re-extracted with benzene. The second benzene extraction yielded 272 cpm (0.01 M1) as a confirmation.

neutral sphingomylenase = assay: Hydrolysis of DHEA-PC by neutral sphingomyelinase; assay type: biochemical
Procedure: (§1) DHEA-phosphocholine (DHEA-PC) was synthesized by sequential reaction of DHEA, choline, and water with phosphorous oxychloride. The synthetic product had the same HPLC retention time and the same mass-spectrum as did the endogenous, actual compound. […] When human serum extracts were analyzed, mass fragments were detected at the same retention time as synthetic material.

acidic sphingomylenase = assay: Hydrolysis of DHEA-PC by acidic sphingomyelinase; assay type: biochemical
Procedure: as §1

TGF-α: stimulates lymphocyte membrane enzyme that cleaves phosphocholine
stimulation of enzyme activity [1]: ten-fold

C[C@]12CC[C@@H](O)C[C@H]1CC[C@@H]1[C@@H]2CC[C@]2(C)C(=O)CC[C@@H]12 [etiocholanolone]
activity when administered orally [2]: only limited activity | inactivated on each pass through the liver ([3]; free compound): about 99% | biologically available fraction of the administered drug [3]: only a fraction of a percent

C[C@@H]1C[C@H]2[C@@H]3CCC4=CC(=O)C=C[C@]4(C)[C@@]3(F)[C@@H](O)C[C@]2(C)[C@@]1(O)C(=O)CO [dexamethasone]
immune response with dexamethasone administered by itself ([4]; versus control): suppressed the immune response below the control

O=C1N(Cc2ccc(CO)cc2)[C@H](Cc2ccccc2)[C@H](O)[C@@H](O)[C@@H](Cc2ccccc2)N1Cc1ccc(CO)cc1 [DMP-323]
aqueous solubility [5]: low aqueous solubility | bioavailability upon administration to patients [6]: variability in the compounds bioavailability | efficacy ([6]; patients): inconsistent efficacy

C[C@]12CC[C@H](OS(=O)(=O)O)CC1=CC[C@@H]1[C@@H]2CC[C@]2(C)C(=O)CC[C@@H]12 [DHEA-sulfate]
cutaneous hypersensitivity immune response [4]: similar, high level response | suppression of the response by dexamethasone [4]: not suppressed by dexamethasone

C[C@]12CC[C@@H]3c4ccc(O)cc4CC[C@H]3[C@@H]1CC[C@@H]2O [estradiol]
activity when administered orally [2]: only limited activity

C[C@]12CC[C@H](O)CC1=CC[C@@H]1[C@@H]2CC[C@]2(C)C(=O)CC[C@@H]12 [DHEA, dehydroepiandrosterone]
extraction of free starting material into benzene ([7]; water/benzene, expected with this protocol): extracted quantitatively into benzene | cutaneous hypersensitivity immune response [4]: similar, high level response | suppression of the response by dexamethasone [4]: not suppressed by dexamethasone | activity when administered orally [2]: only limited activity

C[C@]12CC[C@H](OP(=O)([O-])OCC[N+](C)(C)C)CC1=CC[C@@H]1[C@@H]2CC[C@]2(C)C(=O)CC[C@@H]12 [DHEA-PC, DHEA-3-PHOSPHOCHOLINE]
second benzene extraction radioactivity ([7]; 0.01 M1 aliquot, re-extraction of the aqueous layer with benzene): 272 cpm | Aqueous Phase radioactivity ([7]; 0.01 ml aliquot, after 3 benzene extractions): 10,729 cpm | Benzene Phase radioactivity ([7]; 0.01 ml aliquot, combined benzene extracts): 1,121 cpm | phase in which the reaction product is found ([7]; water/benzene): remains in the aqueous phase | hydrolysis by neutral sphingomylenase (neutral sphingomylenase): hydrolyzed by neutral sphingomylenase | hydrolysis by acidic sphingomylenase (acidic sphingomylenase): not by acidic sphingomylenase | cutaneous hypersensitivity immune response [4]: enhanced the cutaneous hypersensitivity immune response similar to native steroids | dinitrochlorobenzene-induced sensitization ([4]; administered to mice): potentiated dinitrochlorobenzene-induced sensitization | suppression of the response by dexamethasone [4]: not suppressed by dexamethasone

C[C@]12CC[C@H]3[C@@H](CCC4=CC(=O)CC[C@@]43C)[C@@H]1CC[C@@H]2O [testosterone]
activity when administered orally [2]: only limited activity
